Assays:
AC1 = AC1 (Homo sapiens, UniProt Q08828); assay: Adenylyl cyclase cAMP accumulation assay, HEK-ACA3/6 cells overexpressing human AC1; type: cell-based; parameters: expressed in transfected cells; host or cells: HEK-ACA3/6 cells (so in the source) overexpressing human AC1; conditions: Table 2; 3 μM A23187 + 0.5 mM IBMX, HTRF cAMP; read-out: AC1 IC50 (μM) ± SEM
Protocol: Cryopreserved HEK-ACA3/6 cells overexpressing human AC1, AC2, AC5, or AC8 were transferred to a 15 mL Falcon tube and gently resuspended in prewarmed Opti-MEM.50 The cells were centrifuged for 5 min at 150 g, the supernatant was discarded, and the cell pellet was resuspended in 10 mL for a second centrifugation step. Then, the cells were counted, plated in a white opaque 384-well plate, and incubated for 1 h in a 37° C. incubator supplemented with 5% CO2. The hit compounds' working solutions were prepared in prewarmed Opti-MEM, and successive serial dilutions were prepared using a Precision 2000 automated pipetting system. Dose*-response curves were generated for each hit compound using a threefold serial dilution starting at 30 μM concentration (at least 6-points per curve). Compounds were added to the assay plates and incubated for 30 min at room temperature. AC activity was selectively stimulated on each AC isoform with 3 μM A23187 (AC1 and AC8), 100 nM PMA (AC2), or a low concentration (1 μM) of the AC activator, forskolin (AC5). All stimulants of AC activity were added in combination with IBMX at a final concentration of 0.5 mM. After 1 h incubation with the stimulant at room temperature, cAMP accumulation was detected using the fluorescence-based Cisbio HTRF cAMP detection kit. […] Percent inhibition at the highest concentration was used to determine max % inhibition (Max AC8% Inhibition). […]

AC8 = AC8 (Homo sapiens, UniProt P40145); assay: Adenylyl cyclase cAMP accumulation assay, HEK-ACA3/6 cells overexpressing human AC8; type: cell-based; parameters: expressed in transfected cells; host or cells: HEK-ACA3/6 cells (so in the source) overexpressing human AC8; conditions: Table 2; for IC50: 3 μM A23187 + 0.5 mM IBMX, HTRF cAMP, read-out: AC8 IC50 (μM) ± SEM; for inhibition at up to 30 µM: percent inhibition at the highest concentration (dilution starting at 30 μM), read-out: Max AC8 % inhibition
Sequence of AC8 (P40145 whole entry): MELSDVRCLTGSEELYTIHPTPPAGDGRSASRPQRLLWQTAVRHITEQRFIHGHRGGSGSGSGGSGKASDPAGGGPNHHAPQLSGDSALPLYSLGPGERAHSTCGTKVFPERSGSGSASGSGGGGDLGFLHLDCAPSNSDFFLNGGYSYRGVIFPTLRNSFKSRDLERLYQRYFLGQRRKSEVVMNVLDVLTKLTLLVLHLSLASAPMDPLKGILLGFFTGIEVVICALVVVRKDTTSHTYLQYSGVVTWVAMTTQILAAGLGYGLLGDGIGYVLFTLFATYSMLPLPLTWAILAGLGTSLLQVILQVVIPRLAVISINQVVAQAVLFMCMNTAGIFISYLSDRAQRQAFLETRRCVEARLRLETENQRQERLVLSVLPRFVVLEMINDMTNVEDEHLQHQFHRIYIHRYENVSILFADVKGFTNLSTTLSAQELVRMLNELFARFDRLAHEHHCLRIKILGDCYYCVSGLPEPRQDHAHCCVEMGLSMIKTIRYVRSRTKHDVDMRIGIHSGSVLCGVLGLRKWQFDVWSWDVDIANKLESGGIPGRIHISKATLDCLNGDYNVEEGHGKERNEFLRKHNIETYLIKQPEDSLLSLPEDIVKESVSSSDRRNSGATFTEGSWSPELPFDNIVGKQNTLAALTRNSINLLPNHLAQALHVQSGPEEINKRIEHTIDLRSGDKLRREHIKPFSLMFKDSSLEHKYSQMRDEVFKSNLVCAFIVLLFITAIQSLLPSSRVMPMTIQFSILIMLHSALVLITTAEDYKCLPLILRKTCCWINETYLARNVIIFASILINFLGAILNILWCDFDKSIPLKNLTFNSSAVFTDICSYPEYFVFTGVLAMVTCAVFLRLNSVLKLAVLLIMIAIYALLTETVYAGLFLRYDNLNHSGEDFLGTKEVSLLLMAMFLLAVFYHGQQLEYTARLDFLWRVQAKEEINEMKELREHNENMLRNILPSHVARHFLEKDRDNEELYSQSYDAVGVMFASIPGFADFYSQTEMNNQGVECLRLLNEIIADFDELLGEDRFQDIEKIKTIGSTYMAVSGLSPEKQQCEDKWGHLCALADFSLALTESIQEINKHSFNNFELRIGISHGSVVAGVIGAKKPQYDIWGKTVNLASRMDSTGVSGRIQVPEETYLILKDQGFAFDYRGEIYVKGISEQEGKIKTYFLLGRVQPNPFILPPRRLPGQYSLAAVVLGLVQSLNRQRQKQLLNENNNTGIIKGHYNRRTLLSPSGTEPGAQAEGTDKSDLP
Protocol: Cryopreserved HEK-ACA3/6 cells overexpressing human AC1, AC2, AC5, or AC8 were transferred to a 15 mL Falcon tube and gently resuspended in prewarmed Opti-MEM.50 The cells were centrifuged for 5 min at 150 g, the supernatant was discarded, and the cell pellet was resuspended in 10 mL for a second centrifugation step. Then, the cells were counted, plated in a white opaque 384-well plate, and incubated for 1 h in a 37° C. incubator supplemented with 5% CO2. The hit compounds' working solutions were prepared in prewarmed Opti-MEM, and successive serial dilutions were prepared using a Precision 2000 automated pipetting system. Dose*-response curves were generated for each hit compound using a threefold serial dilution starting at 30 μM concentration (at least 6-points per curve). Compounds were added to the assay plates and incubated for 30 min at room temperature. AC activity was selectively stimulated on each AC isoform with 3 μM A23187 (AC1 and AC8), 100 nM PMA (AC2), or a low concentration (1 μM) of the AC activator, forskolin (AC5). All stimulants of AC activity were added in combination with IBMX at a final concentration of 0.5 mM. After 1 h incubation with the stimulant at room temperature, cAMP accumulation was detected using the fluorescence-based Cisbio HTRF cAMP detection kit. […] Percent inhibition at the highest concentration was used to determine max % inhibition (Max AC8% Inhibition).
The Max AC8 inhibition is a description of the maximum efficacy of molecules against AC8.

Sequence of AC1 (Q08828 whole entry): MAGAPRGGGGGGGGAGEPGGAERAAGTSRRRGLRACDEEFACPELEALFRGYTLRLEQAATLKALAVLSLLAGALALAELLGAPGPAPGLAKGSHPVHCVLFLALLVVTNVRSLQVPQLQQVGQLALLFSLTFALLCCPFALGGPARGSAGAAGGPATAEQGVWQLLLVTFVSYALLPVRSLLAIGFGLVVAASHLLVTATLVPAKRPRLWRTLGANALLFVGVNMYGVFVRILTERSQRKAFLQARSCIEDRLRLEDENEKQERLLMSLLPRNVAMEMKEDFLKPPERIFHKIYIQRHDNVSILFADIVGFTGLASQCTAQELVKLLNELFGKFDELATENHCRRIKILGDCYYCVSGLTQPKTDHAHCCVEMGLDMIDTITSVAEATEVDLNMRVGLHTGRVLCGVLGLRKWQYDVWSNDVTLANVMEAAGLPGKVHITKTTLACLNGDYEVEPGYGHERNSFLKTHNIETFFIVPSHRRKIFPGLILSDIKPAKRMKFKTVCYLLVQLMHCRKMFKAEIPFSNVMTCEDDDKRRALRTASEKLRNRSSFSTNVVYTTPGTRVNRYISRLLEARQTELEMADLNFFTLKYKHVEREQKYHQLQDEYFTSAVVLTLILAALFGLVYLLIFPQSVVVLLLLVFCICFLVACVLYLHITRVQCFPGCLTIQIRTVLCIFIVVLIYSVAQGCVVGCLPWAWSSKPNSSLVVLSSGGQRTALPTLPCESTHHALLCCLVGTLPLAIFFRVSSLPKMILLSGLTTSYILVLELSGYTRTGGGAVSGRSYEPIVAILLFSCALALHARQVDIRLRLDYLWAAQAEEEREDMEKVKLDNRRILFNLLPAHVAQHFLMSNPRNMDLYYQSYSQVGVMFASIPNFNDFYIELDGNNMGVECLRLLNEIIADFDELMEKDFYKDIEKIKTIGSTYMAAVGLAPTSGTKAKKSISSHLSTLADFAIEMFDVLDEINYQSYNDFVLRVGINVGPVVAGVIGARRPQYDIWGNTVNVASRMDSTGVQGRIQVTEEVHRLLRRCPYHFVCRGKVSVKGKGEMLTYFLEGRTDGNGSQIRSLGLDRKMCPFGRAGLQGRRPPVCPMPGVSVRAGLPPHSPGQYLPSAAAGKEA

IC50 (AC1) [µM] | IC50 (AC8) [µM] | inhibition at up to 30 µM (AC8) [%] | SMILES
0.36 ± 0.12 | 31.8 ± 19.3 | 35 | Cc1cc(=O)[nH]c(-n2nc(C)cc2NCc2ccc(Cl)cc2)n1 [AC10111A]
0.86 ± 0.07 | 45.3 ± 14.1 | 37 | CCc1cc(=O)[nH]c(-n2nc(-c3ccccc3)cc2NCc2ccc(OC)cc2)n1 [AC10112A]
15.5 ± 8.63 | > 60 | 19 | Cc1cc(NCc2ccc(Cl)cc2)n(-c2ccccc2)n1 [AC10113A]
0.63 ± 0.22 | > 60 | 33 | Cc1cccc(CNc2cc(C)nn2-c2nc(C)cc(=O)[nH]2)c1 [AC10114A]
0.75 ± 0.39 | 10.8 ± 4.61 | 82 | Cc1cccc(CNc2cc(C)nn2-c2nc3c(c(=O)[nH]2)CCC3)c1 [AC10115A]
2.63 ± 0.51 | 8.23 ± 4.05 | 83 | Cc1cccc(CNc2cc(C)nn2-c2nccc(=O)[nH]2)c1 [AC10116A]
1.07 ± 0.07 | > 60 | 23 | CCc1cc(=O)[nH]c(-n2nc(C)cc2NCc2ccco2)n1 [AC10139A]
0.39 ± 0.02 | > 60 | 4 | CCc1cc(=O)[nH]c(-n2nc(C)cc2NCc2cccs2)n1 [AC10140A]
0.26 ± 0.03 | 2.01 ± 0.09 | 84 | CCc1cc(=O)[nH]c(-n2nc(C)cc2NCc2ccc(C(=O)c3ccccc3)cc2)n1 [AC10144A]
